# Target: recombinant DYRK1A kinase (Homo sapiens (Human), UniProt Q13627)
# Test: DYRK1A kinase assay (Ser/Thr 18 peptide Z-lyte FRET assay)
# Format: biochemical
# Settings: recombinant DYRK1A 0.25 µg/mL, ATP 15 µM, Ser/Thr peptide 18 4 µM, one hour at room temperature; table head prints EC50, method says IC50
# How it was run: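 Recombinant human DYRK1A (0.25 µg/mL) with 15 µM ATP and 4 µM Ser/Thr 18 peptide was incubated 1 h at room temperature with compound (11-point, 10 µM top), in duplicate. Z-lyte FRET read-out (coumarin/fluorescein emission ratio) was converted to percent phosphorylation; IC50 from non-linear regression.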
row,SMILES,EC50 [nM]
1,"Cc1nc2ccc(-c3ccn4nc(N[C@H]5CC[C@@H](OCCO)CC5)ncc34)nc2n1CC(F)F [Compound 1839, 2-((cis-4-((5-(3-(2,2-difluoroethyl)-2-methyl-3H-imidazo[4,5-b]pyridin-5-yl)pyrrolo[2,1-f][1,2,4]triazin-2-yl)amino)cyclohexyl)oxy)ethan-1-ol]",4
2,"Cc1nc2ccc(-c3ccn4nc(N[C@H]5CC[C@@H](CN6CCOCC6)CC5)ncc34)nc2n1CC(F)F [Compound 1842, 5-(3-(2,2-difluoroethyl)-2-methyl-3H-imidazo[4,5-b]pyridin-5-yl)-N-(cis-4-(morpholinomethyl)cyclohexyl)pyrrolo[2,1-f][1,2,4]triazin-2-amine]",5
3,"CCOC(=O)[C@H]1CC[C@@H](Nc2ncc3c(-c4ccc5nc(C)n(CC(F)F)c5n4)ccn3n2)CC1 [Compound 1843, Ethyl cis-4-((5-(3-(2,2-difluoroethyl)-2-methyl-3H-imidazo[4,5-b]pyridin-5-yl)pyrrolo[2,1-f][1,2,4]triazin-2-yl)amino)cyclohexane-1-carboxylate]",33
4,"Cc1nc2ccc(-c3ccn4nc(N[C@H]5CC[C@@H](C(=O)N(C)C)CC5)ncc34)nc2n1CC(F)F [Compound 1845, cis-4-((5-(3-(2,2-Difluoroethyl)-2-methyl-3H-imidazo[4,5-b]pyridin-5-yl)pyrrolo[2,1-f][1,2,4]triazin-2-yl)amino)-N,N-dimethylcyclohexane-1-carboxamide]",4
5,"Cc1nc2ccc(-c3ccn4nc(NC5CCC6(CC5)CN(C)C6)ncc34)nc2n1CC(F)F [Compound 1846, 5-(3-(2,2-Difluoroethyl)-2-methyl-3H-imidazo[4,5-b]pyridin-5-yl)-N-(2-methyl-2-azaspiro[3.5]nonan-7-yl)pyrrolo[2,1-f][1,2,4]triazin-2-amine]",4
6,Cc1nc2ccc(-c3ccn4nc(NC5CCC6(CC5)OCCO6)ncc34)nc2n1CC(F)F [Compound 1847],5
7,"Cc1nc2ccc(-c3ccn4nc(NC5CCN(CC(F)F)CC5)ncc34)nc2n1CC(F)F [Compound 1850, 5-(3-(2,2-Difluoroethyl)-2-methyl-3H-imidazo[4,5-b]pyridin-5-yl)-N-(1-(2,2-difluoroethyl)piperidin-4-yl)pyrrolo[2,1-f][1,2,4]triazin-2-amine]",8
8,"Cc1nc2ccc(-c3ccn4nc(NC5CCN(CCO)CC5)ncc34)nc2n1CC(F)F [Compound 1852, 2-(4-((5-(3-(2,2-Difluoroethyl)-2-methyl-3H-imidazo[4,5-b]pyridin-5-yl)pyrrolo[2,1-f][1,2,4]triazin-2-yl)amino)piperidin-1-yl)ethan-1-ol]",9
9,"Cc1nc2ccc(-c3ccn4nc(N[C@@H]5CCN(C)C[C@@H]5F)ncc34)nc2n1CC(F)F [Compound 1853, 5-(3-(2,2-Difluoroethyl)-2-methyl-3H-imidazo[4,5-b]pyridin-5-yl)-N-((3S,4R)-3-fluoro-1-methylpiperidin-4-yl)pyrrolo[2,1-f][1,2,4]triazin-2-amine]",5
10,"Cc1nc2ccc(-c3ccn4nc(N[C@H]5CCN(C)C[C@@H]5F)ncc34)nc2n1CC(F)F [Compound 1855, 5-(3-(2,2-Difluoroethyl)-2-methyl-3H-imidazo[4,5-b]pyridin-5-yl)-N-((3S,4S)-3-fluoro-1-methylpiperidin-4-yl)pyrrolo[2,1-f][1,2,4]triazin-2-amine]",6
11,"CCC(=O)N1CCC(Nc2ncc3c(-c4ccc5nc(C)n(CC(F)F)c5n4)ccn3n2)CC1 [Compound 1858, 1-(4-((5-(3-(2,2-Difluoroethyl)-2-methyl-3H-imidazo[4,5-b]pyridin-5-yl)pyrrolo[2,1-f][1,2,4]triazin-2-yl)amino)piperidin-1-yl)propan-1-one]",7
12,"Cc1nc2ccc(-c3ccn4nc(NC5CCN(C(=O)C(C)C)CC5)ncc34)nc2n1CC(F)F [Compound 1859, 1-(4-((5-(3-(2,2-Difluoroethyl)-2-methyl-3H-imidazo[4,5-b]pyridin-5-yl)pyrrolo[2,1-f][1,2,4]triazin-2-yl)amino)piperidin-1-yl)-2-methylpropan-1-one]",8
13,"Cc1nc2ccc(-c3ccn4nc(NC5CCN(C6COC6)CC5)ncc34)nc2n1CC(F)F [Compound 1862, 5-(3-(2,2-Difluoroethyl)-2-methyl-3H-imidazo[4,5-b]pyridin-5-yl)-N-(1-(oxetan-3-yl)piperidin-4-yl)pyrrolo[2,1-f][1,2,4]triazin-2-amine]",6
14,"Cc1nc2ccc(-c3ccn4nc(N[C@@H]5CCOC[C@@H]5O)ncc34)nc2n1CC(F)F [Compound 1865, (3R,4R)-4-((5-(3-(2,2-Difluoroethyl)-2-methyl-3H-imidazo[4,5-b]pyridin-5-yl)pyrrolo[2,1-f][1,2,4]triazin-2-yl)amino)tetrahydro-2H-pyran-3-ol]",20

# Now from value to molecule:
row,EC50 [nM],SMILES
1,3,"Cc1nc2ccc(-c3ccn4nc(NC5CC6(CCN(C)CC6)C5)ncc34)nc2n1CC(F)F [Compound 1836, 5-(3-(2,2-Difluoroethyl)-2-methyl-3H-imidazo[4,5-b]pyridin-5-yl)-N-(7-methyl-7-azaspiro[3.5]nonan-2-yl)pyrrolo[2,1-f][1,2,4]triazin-2-amine]"
2,6,"Cc1nc2ccc(-c3ccn4nc(N[C@H]5CC[C@@H](CO)CC5)ncc34)nc2n1CC(F)F [Compound 1837, (cis-4-((5-(3-(2,2-Difluoroethyl)-2-methyl-3H-imidazo[4,5-b]pyridin-5-yl)pyrrolo[2,1-f][1,2,4]triazin-2-yl)amino)cyclohexyl)methanol]"
3,6,Cc1nc2ccc(-c3ccn4nc(N[C@H]5CC[C@@H](OCC(F)F)CC5)ncc34)nc2n1CC(F)F [Compound 1838]
4,3,"Cc1nc2ccc(-c3ccn4nc(N[C@H]5CC[C@](C)(O)CC5)ncc34)nc2n1CC(F)F [Compound 1840, trans-4-((5-(3-(2,2-Difluoroethyl)-2-methyl-3H-imidazo[4,5-b]pyridin-5-yl)pyrrolo[2,1-f][1,2,4]triazin-2-yl)amino)-1-methylcyclohexan-1-ol]"
5,6,"Cc1nc2ccc(-c3ccn4nc(N[C@H]5CC[C@@H](CN6CCN(C)CC6)CC5)ncc34)nc2n1CC(F)F [Compound 1841, 5-(3-(2,2-Difluoroethyl)-2-methyl-3H-imidazo[4,5-b]pyridin-5-yl)-N-(cis-4-((4-methylpiperazin-1-yl)methyl)cyclohexyl)pyrrolo[2,1-f][1,2,4]triazin-2-amine]"
6,3,"CC(=O)N[C@H]1CC[C@H](Nc2ncc3c(-c4ccc5nc(C)n(CC(F)F)c5n4)ccn3n2)CC1 [Compound 1844, N-(trans-4-((5-(3-(2,2-Difluoroethyl)-2-methyl-3H-imidazo[4,5-b]pyridin-5-yl)pyrrolo[2,1-f][1,2,4]triazin-2-yl)amino)cyclohexyl)acetamide]"
7,5,"Cc1nc2ccc(-c3ccn4nc(NCC5CN(C)CCO5)ncc34)nc2n1CC(F)F (centres unmarked) [Compound 1848, 5-(3-(2,2-Difluoroethyl)-2-methyl-3H-imidazo[4,5-b]pyridin-5-yl)-N-((4-methylmorpholin-2-yl)methyl)pyrrolo[2,1-f][1,2,4]triazin-2-amine]"
8,7,Cc1nc2ccc(-c3ccn4nc(NC5CCN(CCF)CC5)ncc34)nc2n1CC(F)F [Compound 1849]
9,11,Cc1nc2ccc(-c3ccn4nc(NC5CCN(CCC(F)(F)F)CC5)ncc34)nc2n1CC(F)F [Compound 1851]
10,8,Cc1nc2ccc(-c3ccn4nc(N[C@@H]5CCN(C)C[C@H]5F)ncc34)nc2n1CC(F)F [Compound 1854]
11,6,Cc1nc2ccc(-c3ccn4nc(N[C@H]5CCN(C)C[C@H]5F)ncc34)nc2n1CC(F)F [Compound 1856]
12,3,"CC(=O)N1CCC(Nc2ncc3c(-c4ccc5nc(C)n(CC(F)F)c5n4)ccn3n2)CC1 [Compound 1857, 1-(4-((5-(3-(2,2-Difluoroethyl)-2-methyl-3H-imidazo[4,5-b]pyridin-5-yl)pyrrolo[2,1-f][1,2,4]triazin-2-yl)amino)piperidin-1-yl)ethan-1-one]"
13,5,Cc1nc2ccc(-c3ccn4nc(NC5CCN(C(=O)C6CC6)CC5)ncc34)nc2n1CC(F)F [Compound 1860]
14,7,"Cc1nc2ccc(-c3ccn4nc(NC5CCN(S(C)(=O)=O)CC5)ncc34)nc2n1CC(F)F [Compound 1861, 5-(3-(2,2-Difluoroethyl)-2-methyl-3H-imidazo[4,5-b]pyridin-5-yl)-N-(1-(methylsulfonyl)piperidin-4-yl)pyrrolo[2,1-f][1,2,4]triazin-2-amine]"
15,8,"Cc1nc2ccc(-c3ccn4nc(N[C@@H]5CCCOC5)ncc34)nc2n1CC(F)F [Compound 1863, (R)-5-(3-(2,2-Difluoroethyl)-2-methyl-3H-imidazo[4,5-b]pyridin-5-yl)-N-(tetrahydro-2H-pyran-3-yl)pyrrolo[2,1-f][1,2,4]triazin-2-amine]"
16,3,"Cc1nc2ccc(-c3ccn4nc(N[C@H]5CCCOC5)ncc34)nc2n1CC(F)F [Compound 1864, (S)-5-(3-(2,2-Difluoroethyl)-2-methyl-3H-imidazo[4,5-b]pyridin-5-yl)-N-(tetrahydro-2H-pyran-3-yl)pyrrolo[2,1-f][1,2,4]triazin-2-amine]"
17,33,"Cc1nc2ccc(-c3ccn4nc(N[C@@H]5CCOC[C@H]5O)ncc34)nc2n1CC(F)F [Compound 1866, (3S,4R)-4-((5-(3-(2,2-Difluoroethyl)-2-methyl-3H-imidazo[4,5-b]pyridin-5-yl)pyrrolo[2,1-f][1,2,4]triazin-2-yl)amino)tetrahydro-2H-pyran-3-ol]"
18,32,"CO[C@@H]1COCC[C@H]1Nc1ncc2c(-c3ccc4nc(C)n(CC(F)F)c4n3)ccn2n1 [Compound 1867, 5-(3-(2,2-Difluoroethyl)-2-methyl-3H-imidazo[4,5-b]pyridin-5-yl)-N-((3S,4R)-3-methoxytetrahydro-2H-pyran-4-yl)pyrrolo[2,1-f][1,2,4]triazin-2-amine]"

# Reference: patent publication US20230312605A1, “PYRROLO[2,1-F][1,2,4]TRIAZINES AND PREPARATION AND USES THEREOF” (BioSplice Therapeutics, Inc., priority 2021, published 2023)
